Measurements from BindingDB's records for doi:10.1016/s0960-894x(02)01027-2 (Glaxosmithkline, 2003).

Biological target: Methionine--tRNA ligase (Staphylococcus aureus)
Experiment: Compound tested for inhibition of Staphylococcus aureus MRS(methionyl tRNA synthetase) in aminoacylation assay

| SMILES | IC50 |
| --- | --- |
| Oc1cc(NCCCNCc2cc(Cl)ccc2Cl)nc2ccccc12 [2-[3-(2,5-Dichloro-benzylamino)-propylamino]-1H-quinolin-4-one] | 9 nM |
| Oc1cc(NCCCSCc2ccc(Cl)c(Cl)c2)nc2ccccc12 [2-[3-(3,4-Dichloro-benzylsulfanyl)-propylamino]-1H-quinolin-4-one] | 170 nM |
| C=CCOc1c(Cl)cc(Cl)cc1CNCCCNc1cc(O)c2ccccc2n1 [2-[3-(2-Allyloxy-3,5-dichloro-benzylamino)-propylamino]-1H-quinolin-4-one] | 7.2 nM |
| CC(C)Oc1c(Cl)cc(Cl)cc1CNCCCNc1cc(O)c2ccccc2n1 [2-[3-(3,5-Dichloro-2-isopropoxy-benzylamino)-propylamino]-1H-quinolin-4-one] | 29 nM |
| Nc1c(Br)cc(Br)cc1CNCCCNc1cc(O)c2ccccc2n1 [2-[3-(2-Amino-3,5-dibromo-benzylamino)-propylamino]-1H-quinolin-4-one] | 9.1 nM |
| CNc1c(Br)cc(Br)cc1CNCCCNc1cc(O)c2ccccc2n1 [2-[3-(3,5-Dibromo-2-methylamino-benzylamino)-propylamino]-1H-quinolin-4-one] | 11 nM |
| CCNc1c(Br)cc(Br)cc1CNCCCNc1cc(O)c2ccccc2n1 [2-[3-(3,5-Dibromo-2-ethylamino-benzylamino)-propylamino]-1H-quinolin-4-one] | 18 nM |
| Oc1cc(NCCCOCc2ccc(Cl)c(Cl)c2)nc2ccccc12 [2-[3-(3,4-Dichloro-benzyloxy)-propylamino]-1H-quinolin-4-one] | 50 nM |
| Oc1cc(NCCCNCc2ccccc2)nc2ccccc12 [2-(3-Benzylamino-propylamino)-1H-quinolin-4-one] | 300 nM |
| Oc1cc(NCCCNCc2cc(Cl)cc(Cl)c2)nc2ccccc12 [2-[3-(3,5-Dichloro-benzylamino)-propylamino]-1H-quinolin-4-one] | 3 nM |
| Oc1cc(NCCCNCc2cc(Br)cc(Br)c2OCC(F)(F)F)nc2ccccc12 [2-{3-[3,5-Dibromo-2-(2,2,2-trifluoro-ethoxy)-benzylamino]-propylamino}-1H-quinolin-4-one] | 11 nM |
| CCOc1c(Br)cc(C#N)cc1CNCCCNc1cc(O)c2ccccc2n1 [3-Bromo-4-ethoxy-5-{[3-(4-oxo-1,4-dihydro-quinolin-2-ylamino)-propylamino]-methyl}-benzonitrile] | 4.6 nM |

Second part, the molecule after the results:

| IC50 | SMILES |
| --- | --- |
| 3.1 nM | CCOc1c(Br)cc(OC)cc1CNCCCNc1cc(O)c2ccccc2n1 [2-[3-(3-Bromo-2-ethoxy-5-methoxy-benzylamino)-propylamino]-1H-quinolin-4-one] |
| 8.8 nM | CCOc1c(Br)cc(I)cc1CNCCCNc1cc(O)c2ccccc2n1 [2-[3-(3-Bromo-2-ethoxy-5-iodo-benzylamino)-propylamino]-1H-quinolin-4-one] |
| 4.4 nM | CCOc1c(Br)cc(Br)cc1CNCCCNc1cc(O)c2ccccc2n1 [2-[3-(3,5-Dibromo-2-ethoxy-benzylamino)-propylamino]-1H-quinolin-4-one] |
| 14 nM | CCOc1c(Cl)cc(Cl)cc1CNCCCNc1cc(O)c2ccccc2n1 [2-[3-(3,5-Dichloro-2-ethoxy-benzylamino)-propylamino]-1H-quinolin-4-one] |
| 61 nM | CCOc1cc(Br)c(OCC)c(CNCCCNc2cc(O)c3ccccc3n2)c1 [2-[3-(3-Bromo-2,5-diethoxy-benzylamino)-propylamino]-1H-quinolin-4-one] |
| 4.9 nM | CCOc1c(Br)cc(C)cc1CNCCCNc1cc(O)c2ccccc2n1 [2-[3-(3-Bromo-2-ethoxy-5-methyl-benzylamino)-propylamino]-1H-quinolin-4-one] |

Biological target: Methionine--tRNA ligase (Staphylococcus aureus)
Experiment: Compound tested for inhibition of Staphylococcus aureus MRS (methionyl tRNA synthetase) in aminoacylation assay

| SMILES | IC50 |
| --- | --- |
| Oc1cc(NCCCNC2CCOc3c(Cl)cc(I)cc32)nc2ccccc12 (stereo unspecified) [2-[3-(8-Chloro-6-iodo-chroman-4-ylamino)-propylamino]-1H-quinolin-4-one] | 12 nM |
| Oc1cc(NCCCNC2CCOc3c(Br)cc(Br)cc32)nc2ccccc12 (stereo unspecified) [2-(3-(6,8-dibromo-3,4-dihydro-2H-chromen-4-ylamino)propylamino)quinolin-4(1H)-one] | 7.8 nM |
| Oc1cc(NCCCNC2CCNc3c(Cl)cc(Br)cc32)nc2ccccc12 (stereo unspecified) | < 3 nM |
| Oc1cc(NCCCNC2CCc3c(Cl)cc(Cl)cc32)nc2ccccc12 (stereo unspecified) [2-[3-(4,6-Dichloro-indan-1-ylamino)-propylamino]-1H-quinolin-4-one] | 5.1 nM |
| O=c1cc(NCCCNC2CCOc3c(Cl)cc(Cl)cc32)[nH]c2ccccc12 (stereo unspecified) | < 3 nM |
| Oc1cc(NCCCNC2CCOc3c(I)cc(Cl)cc32)nc2ccccc12 (stereo unspecified) [2-[3-(6-Chloro-8-iodo-chroman-4-ylamino)-propylamino]-1H-quinolin-4-one] | 9.4 nM |
| Oc1cc(NCCCNC2CCCc3c(Cl)cc(Cl)cc32)nc2ccccc12 (stereo unspecified) [2-[3-(5,7-Dichloro-1,2,3,4-tetrahydro-naphthalen-1-ylamino)-propylamino]-1H-quinolin-4-one] | 3.8 nM |
| Oc1cc(NCCCNC2CCNc3c(Br)cc(Cl)cc32)nc2ccccc12 (stereo unspecified) | < 3 nM |
| CCOc1c(Br)cc([S+](C)[O-])cc1CNCCCNc1cc(O)c2ccccc2n1 (stereo unspecified) [2-[3-(3-Bromo-2-ethoxy-5-methanesulfinyl-benzylamino)-propylamino]-1H-quinolin-4-one] | 23 nM |
| Oc1cc(NCCCNC2CCNc3c(Br)cc(Br)cc32)nc2ccccc12 (stereo unspecified) [2-[3-(6,8-Dibromo-1,2,3,4-tetrahydro-quinolin-4-ylamino)-propylamino]-1H-quinolin-4-one] | 8 nM |
| CCOc1c(C)cc(C(F)(F)F)cc1CNCCCNc1cc(O)c2ccccc2n1 [2-[3-(2-Ethoxy-3-methyl-5-trifluoromethyl-benzylamino)-propylamino]-1H-quinolin-4-one] | 6.8 nM |
| CCc1cc(I)c2c(c1)C(NCCCNc1cc(O)c3ccccc3n1)CCN2 (stereo unspecified) [2-[3-(6-Ethyl-8-iodo-1,2,3,4-tetrahydro-quinolin-4-ylamino)-propylamino]-1H-quinolin-4-one] | 12 nM |
| Cc1cc(Br)cc2c1NCCC2NCCCNc1cc(O)c2ccccc2n1 (stereo unspecified) [2-[3-(6-Bromo-8-methyl-1,2,3,4-tetrahydro-quinolin-4-ylamino)-propylamino]-1H-quinolin-4-one] | 9.4 nM |
| CCc1cc(Br)cc2c1NCCC2NCCCNc1cc(O)c2ccccc2n1 (stereo unspecified) [2-[3-(6-Bromo-8-ethyl-1,2,3,4-tetrahydro-quinolin-4-ylamino)-propylamino]-1H-quinolin-4-one] | 4.3 nM |
| Oc1cc(NCCCNCc2ccc(Cl)c(Cl)c2)nc2ccccc12 [2-[3-(3,4-Dichloro-benzylamino)-propylamino]-1H-quinolin-4-one] | 16 nM |
| Oc1cc(NCCCNC2COc3c(Cl)cc(Cl)cc32)nc2ccccc12 (stereo unspecified) [2-[3-(5,7-Dichloro-2,3-dihydro-benzofuran-3-ylamino)-propylamino]-1H-quinolin-4-one] | 6 nM |
| Oc1cc(NCCCNC2CCNc3c(Cl)cc(Cl)cc32)nc2ccccc12 (stereo unspecified) [2-[3-(6,8-Dichloro-1,2,3,4-tetrahydro-quinolin-4-ylamino)-propylamino]-1H-quinolin-4-one] | 23 nM |

Second part, the molecule after the results:

| IC50 | SMILES |
| --- | --- |
| 4 nM | CCOc1c(C#N)cc(Br)cc1CNCCCNc1cc(O)c2ccccc2n1 [5-Bromo-2-ethoxy-3-{[3-(4-oxo-1,4-dihydro-quinolin-2-ylamino)-propylamino]-methyl}-benzonitrile] |
| 13 nM | CCOc1c(CNCCCNc2cc(O)c3ccccc3n2)cc(Br)cc1OC [TCMDC-139833] |
| 170 nM | CCOC(=O)c1cc(I)c(OCC)c(CNCCCNc2cc(O)c3ccccc3n2)c1 [4-Ethoxy-3-iodo-5-{[3-(4-oxo-1,4-dihydro-quinolin-2-ylamino)-propylamino]-methyl}-benzoic acid ethyl ester] |
| 12 nM | CCOc1c(CNCCCNc2cc(O)c3ccccc3n2)cc(I)cc1OC [TCMDC-139847] |
| 4.1 nM | CCOc1c(CO)cc(I)cc1CNCCCNc1cc(O)c2ccccc2n1 [2-[3-(2-Ethoxy-3-hydroxymethyl-5-iodo-benzylamino)-propylamino]-1H-quinolin-4-one] |
| 120 nM | CCOc1c(CNCCCNc2cc(O)c3ccccc3n2)cc(I)cc1C(C)(C)C [2-[3-(3-tert-Butyl-2-ethoxy-5-iodo-benzylamino)-propylamino]-1H-quinolin-4-one] |
| 3.2 nM | CCOc1c(C)cc(I)cc1CNCCCNc1cc(O)c2ccccc2n1 [2-[3-(2-Ethoxy-5-iodo-3-methyl-benzylamino)-propylamino]-1H-quinolin-4-one] |
| 5.1 nM | CCOc1c(C)cc(SC)cc1CNCCCNc1cc(O)c2ccccc2n1 [2-[3-(2-Ethoxy-3-methyl-5-methylsulfanyl-benzylamino)-propylamino]-1H-quinolin-4-one] |
| 21 nM | CCOC(=O)c1cc(I)cc(CNCCCNc2cc(O)c3ccccc3n2)c1OCC [2-Ethoxy-5-iodo-3-{[3-(4-oxo-1,4-dihydro-quinolin-2-ylamino)-propylamino]-methyl}-benzoic acid ethyl ester] |
| 7.2 nM | CCOc1c(I)cc(C)cc1CNCCCNc1cc(O)c2ccccc2n1 [2-[3-(2-Ethoxy-3-iodo-5-methyl-benzylamino)-propylamino]-1H-quinolin-4-one] |
| 14 nM | CCOc1c(I)cc(CO)cc1CNCCCNc1cc(O)c2ccccc2n1 [2-[3-(2-Ethoxy-5-hydroxymethyl-3-iodo-benzylamino)-propylamino]-1H-quinolin-4-one] |
| 9.4 nM | CCOc1c(CNCCCNc2cc(O)c3ccccc3n2)cc(I)cc1COC [2-[3-(2-Ethoxy-5-iodo-3-methoxymethyl-benzylamino)-propylamino]-1H-quinolin-4-one] |
| 17 nM | CCOc1c(I)cc(COC)cc1CNCCCNc1cc(O)c2ccccc2n1 [2-[3-(2-Ethoxy-3-iodo-5-methoxymethyl-benzylamino)-propylamino]-1H-quinolin-4-one] |
| < 3 nM | C=CCc1cc(I)cc(CNCCCNc2cc(O)c3ccccc3n2)c1OCC |
| 3.9 nM | CCOc1c(C)cc(C#N)cc1CNCCCNc1cc(O)c2ccccc2n1 [4-Ethoxy-3-methyl-5-{[3-(4-oxo-1,4-dihydro-quinolin-2-ylamino)-propylamino]-methyl}-benzonitrile] |
| 3.3 nM | CCOc1c(I)cc(OC)cc1CNCCCNc1cc(O)c2ccccc2n1 [2-[3-(2-Ethoxy-3-iodo-5-methoxy-benzylamino)-propylamino]-1H-quinolin-4-one] |
